Bridge positions count the residues as written; N and C are the ends. Ends that are not written are not given here. I, II: the chains in the order shown.
Assays:
[1] = tested on: RET; cerebellar granule neurons (CGNs); assay: Neurite outgrowth in CGNs with anti-RET antibody; format: cell-based, Wistar rat; settings: for neurite outgrowth without antibody: ARTN 0.042 nM or artefin 0.47 μM, versus control; for neurite outgrowth with anti-RET antibody / neurite outgrowth with control IgG: 1 h before ARTN 0.042 nM or artefin 0.47 μM; for neurite outgrowth with control IgG: control IgG 4.1 μg/ml
Procedure: (§1) Cerebellar granule neurons (CGNs) were prepared from 7-day-old Wistar rat pups (Charles River Laboratories, Sulzfeld, Germany) as previously described ([Schousboe et al., 1989]). Briefly, pups were decapitated, and the cerebellum was removed and cleared from blood vessels and meninges in ice-cold modified Krebs-Ringer buffer. The cerebellum was dissociated by chopping and trypsinization. Cells were washed in Krebs-Ringer buffer containing DNAse I (Sigma, St. Louis, MO, United States) and soybean trypsin inhibitor (Sigma) to stop trypsinization, and the remaining tissue pieces were pelleted by centrifugation. Cells were then washed in Krebs-Ringer buffer containing Ca^2+ and Mg^2+ and re-suspended in appropriate Neurobasal^TM medium (Invitrogen, Taastrup, Denmark) with supplements depending on the experiment.
(§2) Cerebellar granule neurons CGNs were re-suspended in Neurobasal^TM medium supplemented with 2% (v/v) B27, 0.5% (v/v) glutamax, 100 U/ml penicillin, 100 μg/ml streptomycin, 0.4% (w/v) BSA, and 20 mM HEPES and were seeded in 8-well LabTek Permanox chamber slides (Nunc) at a density of 1 × 10^4 cells/cm^2. Various concentrations of ARTN, artefin, scrambled artefin, or reversed artefin were added to neurons immediately after seeding. For the RET inhibition assay, the inhibitory goat anti-mouse RET antibody (4.1 μg/ml; R&D systems, Abingdon, United Kingdom) or control goat IgG (4.1 μg/ml; Santa Cruz Biotechnology, Dallas, TX, United States) were added to neurons 1 h before stimulation with ARTN (0.042 nM) […]. For the competition assay between growth factor and mimetic peptide, a combination of ARTN (2.1 nM) and artefin (4.2 μM) was added to the cells immediately after seeding. To inhibit Fibroblast growth factor receptor (FGFR) pharmacologically, inhibitor of FGFR, SU5402 (Sigma), was added to the growth medium in serial dilutions of 20, 40, and 80 μM immediately after plating of CGNs, followed by addition of either P2-d (8 μg/ml), ARTN (0.21 nM), or artefin (1.4 μM) 1 h after the plating.
(§3) To estimate neurite outgrowth, neurons were fixated 24 h after stimulation and stained with rabbit anti-growth-associated-protein-43 (GAP-43) antibody (Chemicon International, Inc., Temecula, CA, United States) or anti-GFP antibody (for transfection experiment) overnight at 4°C followed by incubation with secondary Alexa-conjugated goat anti-rabbit antibodies (Invitrogen, Taastrup, Denmark). In case of experiments with plasmid transfection, the transfection efficiency was ca. 20% of total cells and the neurite outgrowth was evaluated only in GFP-positive, i.e., transfected, cells. For representative pictures, cells were additionally co-stained with Hoechst 33258.
(§4) Computer-assisted fluorescent microscopy was performed using a Nikon Diaphot 300 inverted microscope (Nikon) equipped with a Nikon Plan 20× objective and coupled to a video camera (Grundig Electronics, Germany). For each condition in each experiment, including the experiment with transfections, images of approximately 200 cells were recorded in systematic series of fields of view, and neurite outgrowth was quantified using a stereological approach as previously described ([Rønn et al., 2000]).
FIGURE 6 Inhibition of ARTN-induced (A) and artefin-induced (B) neurite outgrowth in CGNs by anti-RET antibody. CGNs were pre-treated directly after plating for 1 h with anti-RET antibody or control IgG in concentrations 4.1 μg/ml before stimulating with ARTN (0.042 nM) or artefin (0.47 μM).

[2] = tested on: cerebellar granule neurons (CGNs); assay: Neurite outgrowth assay in CGNs; format: cell-based, Wistar rat; settings: 24 h; for maximum level of neurite outgrowth: untreated control = 100%, mean of four independent experiments; for neurite outgrowth, single agent in competition assay: ARTN 2.1 nM alone or artefin 4.2 μM alone, paired t-test versus control; for overall neuritogenic effect: ARTN 0.013–2.1 nM, artefin 0.16–37.9 μM, one-way ANOVA
Procedure: as §1, §2, §3, §4
FIGURE 3 Neurite outgrowth induced by ARTN (A), artefin-dendrimer (B), and artefin-monomer (C) in CGNs. Cells were stimulated with ARTN (0.013, 0.042, 0.13, 0.42, and 2.1 nM) or artefin (0.16, 0.47, 1.4, 4.2, 12.6, and 37.9 μM) for 24 h. For the unstimulated control, the absolute length of neurites was 11.47 ± 1.5 μm. Results from four independent experiments are expressed as percentage of untreated control set to 100% and presented as mean ± SEM. The mean neurite outgrowth lengths were compared using one-way ANOVA for repeated measurements. The effect of individual concentrations of ARTN and artefin was compared to control using one-way ANOVA with Dunnett’s post-hoc test, ^∗p < 0.05; ^∗∗p < 0.01. […]

Molecule: I: RSPHDLSLASLLGAGKK-NH2 / II: RSPHDLSLASLLGAGK / III: RSPHDLSLASLLGAG / IV: RSPHDLSLASLLGAG (amide I:16-IV:C, I:17-II:C, II:16-III:C; C-terminus assumed) [artefin]
- neurite outgrowth without antibody [1]: significantly increased when compared to the control (p < 0.01)
- neurite outgrowth with anti-RET antibody ([1]; anti-RET antibody 4.1 μg/ml): statistically significant reduction of artefin-induced neurite outgrowth (p < 0.01 versus artefin alone)
- neurite outgrowth with anti-RET antibody versus unstimulated control ([1]; anti-RET antibody 4.1 μg/ml, artefin 0.47 μM, p < 0.01): still significantly different from unstimulated control
- neurite outgrowth with control IgG [1]: did not significantly alter the neuritogenic effect of artefin
- concentration of maximum neurite outgrowth ([2]; artefin as dendrimer): 4.2 µM
- neurite outgrowth compared to ARTN ([2]; artefin dendrimer, higher length of neurites): more effective (higher length of neurites) than ARTN
- maximum level of neurite outgrowth ([2]; artefin as dendrimer): 404 % of control
- neurite outgrowth, single agent in competition assay [2]: significant increase in neurite outgrowth (p < 0.001)
- overall neuritogenic effect [2]: statistically significant (F = 9.723, p < 0.0001)
- neurite outgrowth effect of artefin in the presence of ARTN ([2]; artefin 4.2 μM co-incubated with ARTN 2.1 nM, p < 0.001 versus artefin alone): eliminated
- neurite outgrowth, sequence specificity ([2]; tetramers, 4.2 μM, paired t-test versus untreated control): statistically significant increase in neurite length when compared to the control condition (p < 0.01)

B1: recombinant human Artemin (ARTN) (ligand, UniProt Q5T4W7 108-220, looked up)
chain: AGGPGSRARAAGARGCRLRSQLVPVRALGLGHRSDELVRFRFCSGSCRRARSPHDLSLASLLGAGALRPPPGSRPVSQPCCRPTRYEAVSFMDVNSTWRTVDRLSATACGCLG
notes: Artemin (ARTN), human, UniProt D3DPX9; source: bought: R&D Systems
- neurite outgrowth without antibody [1]: significantly higher level of neurite outgrowth than control cultures
- neurite outgrowth with anti-RET antibody ([1]; anti-RET antibody 4.1 μg/ml): completely abolished the neurite elongation effect of ARTN
- neurite outgrowth with control IgG [1]: did not affect the ARTN-induced neurite outgrowth
- concentration of maximum neurite outgrowth [2]: 4.2e-05 µM
- maximum level of neurite outgrowth ([2]; artefin as dendrimer): 210 % of control
- dose-response of neurite outgrowth ([2]; 0.013–2.1 nM): bell-shaped dose-response manner
- neurite outgrowth, single agent in competition assay [2]: equivalent to that of the control condition
- overall neuritogenic effect [2]: statistically significant (F = 5.069, p < 0.01)
